Source: PubChem BioAssay (NCI)
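Step 1: Grow cells in 96-well plates. Step 2: Expose to compound for 48 hours at 5 concentrations. Step 3: Interpolate endpoints linearly; if unreached, use highest concentration. Here, GI50 denotes the concentration required for 50% inhibition of growth. The concentration for full growth arrest is given as TGI.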

What was measured:
Assay in all cases: inhibition of tumour cell growth, NCI panel, 48 h
[1] = system: M14 melanoma
[2] = system: RPMI-8226 leukemia
[3] = system: HOP-62 NSCLC
[4] = system: 786-0 renal
[5] = system: HOP-92 NSCLC
[6] = system: A549 NSCLC
[7] = system: CAKI-1 renal
[8] = system: NCI-H23 lung
[9] = system: TK-10 renal
[10] = system: HCT-15 colon
[11] = system: SF-539 CNS
[12] = system: MDA-MB-435
[13] = system: SNB-75 CNS
[14] = system: IGROV1 ovarian
[15] = system: MOLT-4 leukemia
[16] = system: SF-268 CNS
[17] = system: SK-OV-3 ovarian
[18] = system: SW-620 colon
[19] = system: HL-60(TB) leukemia
[20] = system: DU-145 prostate
[21] = system: EKVX NSCLC
[22] = system: MDA-MB-231 breast
[23] = system: K-562 leukemia
[24] = system: HCT-116 colon
[25] = system: UACC-62 melanoma
[26] = system: ACHN renal
[27] = system: UACC-257 melanoma
[28] = system: SN12C renal
[29] = system: RXF 393 renal
[30] = system: CCRF-CEM leukemia
[31] = system: SK-MEL-28 melanoma
[32] = system: NCI-H522 lung
[33] = system: OVCAR-4 ovarian
[34] = system: HT29 colon
[35] = system: UO-31 renal
[36] = system: KM12 colon
[37] = system: OVCAR-3 ovarian
[38] = system: HCC-2998 colon
[39] = system: PC-3 prostate
[40] = system: U251 CNS
[41] = system: NCI-H460 lung
[42] = system: T-47D breast
[43] = system: NCI-H226 lung
[44] = system: BT-549 breast
[45] = system: OVCAR-5 ovarian
[46] = system: COLO 205 colon
[47] = system: SK-MEL-5 melanoma
[48] = system: A498 renal
[49] = system: SK-MEL-2 melanoma
[50] = system: SNB-19 CNS
[51] = system: MALME-3M melanoma
[52] = system: HS 578T breast
[53] = system: SF-295 CNS
[54] = system: LOX IMVI melanoma
[55] = system: NCI/ADR-RES ovarian
[56] = system: OVCAR-8 ovarian
[57] = system: MCF7 breast
[58] = system: SR leukemia

CCCCCCCCCCCCCCCCCC1=NC(C)(C)CN1C(C)(C)CO
GI50 [1]: 1.46 µM | TGI [1]: 2.88 µM | GI50 [2]: 1.8 µM | TGI [2]: 4.37 µM | GI50 [3]: 1.72 µM | TGI [3]: 3.19 µM | GI50 [4]: 1.45 µM | TGI [4]: 2.89 µM | GI50 [5]: 0.85 µM | TGI [5]: 3.37 µM | GI50 [6]: 1.68 µM | TGI [6]: 3.31 µM | GI50 [7]: 1.6 µM | TGI [7]: 3.9 µM | GI50 [8]: 1.52 µM | TGI [8]: 2.99 µM | GI50 [9]: 1.83 µM | TGI [9]: 3.34 µM | GI50 [10]: 1.38 µM | TGI [10]: 3.16 µM | GI50 [11]: 1.59 µM | TGI [11]: 3.14 µM | GI50 [12]: 1.58 µM | TGI [12]: 3.42 µM | GI50 [13]: 1.47 µM | TGI [13]: 3.13 µM | GI50 [14]: 1.08 µM | TGI [14]: 2.6 µM | GI50 [15]: 1.45 µM | TGI [15]: 4.05 µM | GI50 [16]: 1.54 µM | TGI [16]: 3.02 µM | GI50 [17]: 1.84 µM | TGI [17]: 3.51 µM | GI50 [18]: 1.48 µM | TGI [18]: 2.9 µM | GI50 [19]: 1.15 µM | TGI [19]: 4.07 µM | GI50 [20]: 1.61 µM | TGI [20]: 3.03 µM | GI50 [21]: 2.21 µM | TGI [21]: 14 µM | GI50 [22]: 1.29 µM | TGI [22]: 3.16 µM | GI50 [23]: 1.11 µM | TGI [23]: 4.05 µM | GI50 [24]: 0.559 µM | TGI [24]: 2.01 µM | GI50 [25]: 1.79 µM | TGI [25]: 3.46 µM | GI50 [26]: 1.53 µM | TGI [26]: 3.05 µM | GI50 [27]: 1.78 µM | TGI [27]: 3.5 µM | GI50 [28]: 1.52 µM | TGI [28]: 3.25 µM | GI50 [29]: 1.11 µM | TGI [29]: 2.36 µM | GI50 [30]: 1.39 µM | TGI [30]: 4.88 µM | GI50 [31]: 1.81 µM | TGI [31]: 3.28 µM | GI50 [32]: 1.63 µM | TGI [32]: 3.25 µM | GI50 [33]: 2.05 µM | TGI [33]: 4.92 µM | GI50 [34]: 1.44 µM | TGI [34]: 3.44 µM | GI50 [35]: 1.42 µM | TGI [35]: 3.43 µM | GI50 [36]: 1.34 µM | TGI [36]: 2.64 µM | GI50 [37]: 1.5 µM | TGI [37]: 2.96 µM | GI50 [38]: 1.2 µM | TGI [38]: 2.5 µM | GI50 [39]: 1.85 µM | TGI [39]: 4.81 µM | GI50 [40]: 1.42 µM | TGI [40]: 3.03 µM | GI50 [41]: 1.31 µM | TGI [41]: 2.8 µM | GI50 [42]: 2.3 µM | TGI [42]: 5.55 µM | GI50 [43]: 2.14 µM | TGI [43]: 4.06 µM | GI50 [44]: 3.28 µM | TGI [44]: 14 µM | GI50 [45]: 1.56 µM | TGI [45]: 3.48 µM | GI50 [46]: 0.407 µM | TGI [46]: 1.38 µM | GI50 [47]: 1.68 µM | TGI [47]: 3.07 µM | GI50 [48]: 11.2 µM | TGI [48]: 31.2 µM | GI50 [49]: 1.83 µM | TGI [49]: 3.51 µM | GI50 [50]: 1.79 µM | TGI [50]: 4.54 µM | GI50 [51]: 1.94 µM | TGI [51]: 4.22 µM | GI50 [52]: 1.62 µM | TGI [52]: 3.98 µM

COc1ccc2c(c1)/C(=C\c1c(-c3ccccc3)nc3sccn13)C(=O)N2
GI50 [1]: 7.11 µM | TGI [1]: 18.4 µM | GI50 [2]: 1.57 µM | TGI [2]: 5.51 µM | GI50 [53]: 0.268 µM | TGI [53]: 0.967 µM | GI50 [3]: 2.42 µM | TGI [3]: 14.9 µM | GI50 [4]: 9.01 µM | TGI [4]: 31.2 µM | GI50 [5]: > 100 µM | TGI [5]: > 100 µM | GI50 [6]: 7.2 µM | TGI [6]: > 100 µM | GI50 [7]: 0.0357 µM | TGI [7]: 0.37 µM | GI50 [8]: 1.97 µM | TGI [8]: 6.85 µM | GI50 [9]: > 23.4 µM | TGI [9]: > 72.9 µM | GI50 [54]: 6.09 µM | TGI [54]: 22.2 µM | TGI [10]: > 35.6 µM | GI50 [11]: 8.23 µM | TGI [11]: 20.5 µM | GI50 [12]: 0.04 µM | TGI [12]: 0.287 µM | GI50 [13]: 7.16 µM | TGI [13]: 23.5 µM | GI50 [14]: 13.9 µM | TGI [14]: 52.3 µM | GI50 [15]: 12.5 µM | TGI [15]: > 44.5 µM | GI50 [16]: 2.11 µM | TGI [16]: 13.4 µM | GI50 [55]: 1.09 µM | TGI [55]: 3.27 µM | TGI [17]: > 65.8 µM | TGI [18]: > 49.6 µM | GI50 [19]: 5.09 µM | TGI [19]: > 35.6 µM | GI50 [20]: 3.01 µM | TGI [20]: 12.6 µM | GI50 [21]: 12.1 µM | TGI [21]: > 43.6 µM | GI50 [22]: 6.92 µM | TGI [22]: 23.5 µM | GI50 [23]: 3.98 µM | TGI [23]: > 41.9 µM | GI50 [24]: 1.43 µM | TGI [24]: 8.19 µM | GI50 [56]: 20.9 µM | TGI [56]: > 72.2 µM | GI50 [25]: 3.52 µM | TGI [25]: 15.6 µM | GI50 [26]: 1.23 µM | TGI [26]: 14.7 µM | GI50 [27]: 28.7 µM | TGI [27]: 89.3 µM | GI50 [28]: 9.57 µM | TGI [28]: > 26.6 µM | GI50 [29]: 2.69 µM | TGI [29]: 21.4 µM | GI50 [57]: > 100 µM | TGI [57]: > 100 µM | GI50 [30]: 5.5 µM | TGI [30]: > 100 µM | GI50 [31]: 2.61 µM | TGI [31]: 21.9 µM | GI50 [32]: 27 µM | TGI [32]: 67.3 µM | GI50 [33]: 15.6 µM | TGI [33]: > 96.8 µM | GI50 [34]: 8.17 µM | TGI [34]: > 40.7 µM | GI50 [35]: 7.29 µM | TGI [35]: > 43.7 µM | GI50 [36]: 1.55 µM | GI50 [37]: 0.122 µM | TGI [37]: 0.444 µM | GI50 [39]: 9.55 µM | TGI [39]: > 35.6 µM | GI50 [40]: 5.88 µM | TGI [40]: 27.9 µM | GI50 [41]: 7.08 µM | TGI [41]: > 24.4 µM | GI50 [42]: 8.33 µM | TGI [42]: 30.9 µM | GI50 [43]: 3.44 µM | TGI [43]: 33.7 µM | GI50 [44]: 3 µM | TGI [44]: 13.9 µM | GI50 [45]: 5.13 µM | TGI [45]: 40.4 µM | GI50 [58]: 24 µM | TGI [58]: > 100 µM | GI50 [46]: 18.7 µM | TGI [46]: 45.8 µM | GI50 [47]: 6.06 µM | TGI [47]: 21.3 µM | GI50 [48]: 0.63 µM | TGI [48]: 5.11 µM | GI50 [49]: 18 µM | TGI [49]: 44.5 µM | GI50 [50]: > 21.5 µM | TGI [50]: > 58.3 µM | GI50 [51]: 39.7 µM | TGI [51]: 97.1 µM
